Measurements as given in patent EP1149907A1, “EDG8 receptor, its preparation and use” (Aventis Pharma Deutschland GmbH, priority 2000, dated 2001).

How the values were obtained:
Assay in all cases: FLIPR assay of intracellular Ca2+ mobilization in transiently transfected CHO cells
[1] = tested on: human EDG8, SEQ ID NO. 2; type: cell-based; details: for increase in intracellular Ca2+ ([Ca2+]i): CHO cells transiently transfected with EDG8 and G-protein α subunits G16 and Gqi5, lipids applied at 10, 100 and 1000 nM (Fig.3)
Procedure: Fig.2 depicts measurement of the intracellular Ca2+ concentration, mediated by S1P via the different S1P-receptors EDG1, 3, 5, 6 and the putative S1P-receptor EDG8, cotransfected in CHO cells with empty vector DNA as a control or various G-protein α subunits. Intracellular Ca2+ concentrations were recorded as real time measurements using the Fluorescence plate imaging reader (FLIPR, Molecular Devices). […] As already known for a large number of Gq-coupled receptors, coexpression of Gaq augments the EDG1 and 5-mediated Ca2+-release as compared with the Ca2+ signal induced by stimulation of endogeneous Gaq. […] The reason for this discrepancy could be the cellular background, as Yamazaki Y. et al. (2000) reported that the Ca2+ signal can be completely abolished in the presence of pertussis toxin (PTX), indicating the involvement of Gi-type G-proteins. In this case the Ca2+ signal would be elicited by bg, released from activated Gaibg heterotrimers. The Gαi-induced Ca2+ signals are known to be much smaller in intensity as compared with the Ca2+ signals induced by bona-fide Gq-linked receptors (Kostenis et al., 1997a; Kostenis et al., 1997b). It may be that detection of such Ca2+ concentrations is beyond the sensitivity of the FLIPR system. […] To check, whether the EDG8 receptor also reacts to related lysophospholipid mediators, we examined the abilities of lysophosphatidic acid (LPA), dihydrosphingosin 1-phosphate (DHS1P), sphingosylphosphorylcholine (SPC) and lysophosphatidylcholine (LPC) to increase intracellular Ca2+ in CHO cells transiently transfected with the EDG8 receptor and the G-protein α subunits G16 and Gqi5 (Fig.3).
(§1) Fig.2: Mobilization of intracellular Ca^2+ by S1P mediated by the EDG1, 3, 5 and 8 receptor in CHO cells, cotransfected with empty vector DNA as a control or the indicated G-protein α subunits. Agonist-mediated changes of intracellular Ca^2+ were measured with the FLIPR using the Ca^2+-sensitive dye FLUO4. Fluorescence of transfected cells loaded with FLUO4 was recorded before and after addition of S1P, applied in the indicated concentrations. Data are expressed as means of quadruplicate determinations in a single experiment. An additional experiment gave similar results.
Fig.3: Effects of S1P, LPA and related lysophospholipid mediators on EDG8-mediated increase in intracellular Ca^2+ measured with the FLIPR as described in the legend of […]. The different lipids were applied in concentrations of 10, 100 and 1000 nM, respectively. Data are means of quadruplicate determinations of a representative experiment. Two additional experiments gave similar results.
CHO-K1 cells were grown in basal ISCOVE medium supplemented with 10% fetal bovine serum at 37°C in a humidified 5% CO2 incubator. For transfections, 2 x 10^5 cells were seeded into 35-mm dishes. About 24 hr later cells were transiently transfected at 50-80% confluency with the indicated receptor and G-protein constructs (1µg of plasmid DNA each) using the Lipofectamine transfection reagent and the supplied protocol (GIBCO). 18-24 hr after transfection cells were seeded into 96well plates at a density of 50.000 cells per well and cultured for 18-24 additional hr until used in the functional FLIPR assays. The cDNA for Gα16 was cloned from TF1 cells by RT-PCR and ligated into the pCDNA1.1 mammalian expression vector (Invitrogen). Murine wild type Gαq was cloned from cells by RT-PCR and inserted into the BamHI-NsiI-sites of pCDNA1.1. To create the C-terminally modified Gαqi5 subunit, in which the last five aa of wt Gαq were replaced with the correspoding Gαi sequence, a 175-bp Bg/II-NsiI fragment was replaced, in a two piece ligation, with a synthetic DNA fragment, containing the desired codon changes. The correctness of all PCR-derived sequences was verified by sequencing in both directions.
Twenty-four hours after transfection, cells were splitted into 96-well, black-wall microplates (Corning) at a density of 50,000 cells per well. […]

[2] = tested on: EDG1; type: cell-based, human; details: CHO cells transfected with EDG1, no cotransfected G-protein α subunit (Fig.2)
Procedure: (§2) Fig.2 depicts measurement of the intracellular Ca2+ concentration, mediated by S1P via the different S1P-receptors EDG1, 3, 5, 6 and the putative S1P-receptor EDG8, cotransfected in CHO cells with empty vector DNA as a control or various G-protein α subunits. Intracellular Ca2+ concentrations were recorded as real time measurements using the Fluorescence plate imaging reader (FLIPR, Molecular Devices). […] As already known for a large number of Gq-coupled receptors, coexpression of Gaq augments the EDG1 and 5-mediated Ca2+-release as compared with the Ca2+ signal induced by stimulation of endogeneous Gaq. […] The reason for this discrepancy could be the cellular background, as Yamazaki Y. et al. (2000) reported that the Ca2+ signal can be completely abolished in the presence of pertussis toxin (PTX), indicating the involvement of Gi-type G-proteins. In this case the Ca2+ signal would be elicited by bg, released from activated Gaibg heterotrimers. The Gαi-induced Ca2+ signals are known to be much smaller in intensity as compared with the Ca2+ signals induced by bona-fide Gq-linked receptors (Kostenis et al., 1997a; Kostenis et al., 1997b). It may be that detection of such Ca2+ concentrations is beyond the sensitivity of the FLIPR system. […]
as §1, with “An additional experiment gave similar results.” left out

[3] = tested on: EDG5; type: cell-based, human; details: CHO cells transfected with EDG5, no cotransfected G-protein α subunit (Fig.2)
Procedure: as §2
as §1, with “An additional experiment gave similar results.” left out

[4] = tested on: EDG3; type: cell-based, human; details: CHO cells transfected with EDG3, no cotransfected G-protein α subunit (Fig.2)
Procedure: as §2
as §1, with “An additional experiment gave similar results.” left out

[5] = tested on: EDG6; type: cell-based, human; details: CHO cells transfected with EDG6, no cotransfected G-protein α subunit
Procedure: as §2

## CCCCCCCCCCCCCCC[C@@H](O)[C@@H](N)COP(=O)(O)O [DHS1P, dihydrosphingosin 1-phosphate]
[1]
  increase in intracellular Ca2+ ([Ca2+]i): evoked [Ca2+]i increases in concentrations of 100 and 1000 nM

## CCCCCCCC/C=C\CCCCCCCC(=O)OCC(O)COP(=O)(O)O (centres unmarked) [LPA, lysophosphatidic acid]
[1]
  increase in intracellular Ca2+ ([Ca2+]i): evoked [Ca2+]i increases in concentrations of 100 and 1000 nM

## CCCCCCCCCCCCC/C=C/[C@@H](O)[C@@H](N)COP(=O)(O)O [S1P, sphingosin 1-phosphate]
[2]
  mobilization of intracellular Ca2+: elicited intracellular Ca2+ signals
[3]
  mobilization of intracellular Ca2+: elicited intracellular Ca2+ signals
[4]
  mobilization of intracellular Ca2+: elicited intracellular Ca2+ signals
[1]; CHO cells cotransfected with EDG8 and Gα16 or Gαqi5 (Fig.2)
  mobilization of intracellular Ca2+: gained the ability to mobilize Ca2+
[1]; CHO cells transfected with EDG8, no cotransfected G-protein α subunit (Fig.2)
  mobilization of intracellular Ca2+: did not release intracellular Ca2+
[1]
  increase in intracellular Ca2+ ([Ca2+]i): most potent activator of EDG8
[5]
  mobilization of intracellular Ca2+: failed to detect a significant Ca2+ increase above basal levels

## CCCCCCCCCCCCC/C=C/[C@@H](O)[C@@H](N)COP(=O)([O-])OCC[N+](C)(C)C [SPC, sphingosylphosphorylcholine]
[1]
  increase in intracellular Ca2+ ([Ca2+]i): failed to generate any significant response in concentrations up to 1 µM

## lysophosphatidylcholine [LPC]
[1]
  increase in intracellular Ca2+ ([Ca2+]i): failed to generate any significant response in concentrations up to 1 µM
